Laboratory results reported in ChEMBL document CHEMBL5728673, “Substituted imidazopyridine compounds as inhibitors of indoleamine 2,3-dioxygenase and/or tryptophan-2,3-dioxygenase” (2021).

Columns and labels:
[1] = biological target: Indoleamine 2,3-dioxygenase 1 (Homo sapiens, UniProt P14902); assay: (§1) Biochemical Coupled Assay: Recombinant human IDO or TDO was incubated in 50 mM KPO4 (pH 7.0), 0.5 mM EGTA, 0.5 mM EDTA, 0.05% Triton™ X100, 20 mM ascorbate, 10 μM methylene blue, 500 U/ml catalase, 50 μg/ml KynB (kynurenine formamidase). TDO assays were carried out in the presence of 330 μM L-tryptophan, while IDO assays had the addition of 45 μM L-tryptophan. After incubation for 17 minutes at room temperature the reactions were stopped by the addition of Erhlich's reagent and incubated at room temperature for 5 minutes before the fluorescence was read.
Chain of Indoleamine 2,3-dioxygenase 1 (P14902 whole entry): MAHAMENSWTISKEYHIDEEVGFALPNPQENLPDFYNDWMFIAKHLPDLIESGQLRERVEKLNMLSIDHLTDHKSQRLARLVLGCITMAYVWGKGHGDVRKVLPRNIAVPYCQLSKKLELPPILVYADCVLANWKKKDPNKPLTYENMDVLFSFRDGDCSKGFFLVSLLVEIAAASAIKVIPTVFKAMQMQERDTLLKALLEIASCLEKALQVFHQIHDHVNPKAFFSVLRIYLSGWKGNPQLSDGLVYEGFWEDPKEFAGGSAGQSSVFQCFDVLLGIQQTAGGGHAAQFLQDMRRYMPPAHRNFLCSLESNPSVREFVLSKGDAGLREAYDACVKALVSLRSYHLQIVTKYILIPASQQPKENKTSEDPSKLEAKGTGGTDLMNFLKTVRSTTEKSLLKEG

[2] = biological target: Tryptophan 2,3-dioxygenase (Homo sapiens, UniProt P48775); assay: as §1
Chain of Tryptophan 2,3-dioxygenase (P48775 whole entry): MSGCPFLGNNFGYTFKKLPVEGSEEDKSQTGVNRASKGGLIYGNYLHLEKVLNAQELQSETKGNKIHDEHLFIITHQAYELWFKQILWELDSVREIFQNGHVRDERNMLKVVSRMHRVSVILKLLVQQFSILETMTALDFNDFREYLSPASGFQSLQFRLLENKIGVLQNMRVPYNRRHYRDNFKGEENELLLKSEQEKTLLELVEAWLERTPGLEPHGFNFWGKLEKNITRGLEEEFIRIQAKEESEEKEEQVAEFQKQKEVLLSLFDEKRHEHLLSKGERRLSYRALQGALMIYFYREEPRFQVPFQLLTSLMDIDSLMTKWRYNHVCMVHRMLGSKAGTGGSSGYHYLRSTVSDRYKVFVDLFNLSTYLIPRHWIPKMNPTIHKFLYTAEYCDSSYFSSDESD

- IC50 [1]: 148 nM
- IC50 [2]: 1590 nM
SMILES: CC1(C)CN(c2cc(Cl)cc3cncn23)CCC12NC(=O)NC2=O (configuration not stated)
